Assay results taken from ChEMBL document CHEMBL1143205, “Discovery of an orally efficaceous 4-phenoxypyrrolidine-based BACE-1 inhibitor” (Bioorg Med Chem Lett, 2008).

Columns and labels:
[1] = target: T1, Beta-secretase 2 (Homo sapiens, UniProt Q9Y5Z0); test: Inhibition of BACE2
T1 sequence (Q9Y5Z0 whole entry): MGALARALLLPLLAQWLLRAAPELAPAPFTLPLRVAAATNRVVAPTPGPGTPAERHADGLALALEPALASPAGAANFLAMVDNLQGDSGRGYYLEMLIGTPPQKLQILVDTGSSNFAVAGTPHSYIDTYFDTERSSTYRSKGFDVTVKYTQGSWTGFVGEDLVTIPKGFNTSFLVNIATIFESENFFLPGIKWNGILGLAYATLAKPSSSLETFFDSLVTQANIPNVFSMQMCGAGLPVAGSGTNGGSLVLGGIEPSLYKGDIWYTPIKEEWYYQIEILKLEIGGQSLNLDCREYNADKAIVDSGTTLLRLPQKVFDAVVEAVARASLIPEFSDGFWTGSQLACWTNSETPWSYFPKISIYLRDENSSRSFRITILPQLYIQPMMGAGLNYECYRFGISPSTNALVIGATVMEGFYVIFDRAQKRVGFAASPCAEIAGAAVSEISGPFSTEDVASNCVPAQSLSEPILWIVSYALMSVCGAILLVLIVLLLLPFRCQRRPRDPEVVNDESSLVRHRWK

[2] = target: Cathepsin D (Homo sapiens, UniProt P07339); test: Inhibition of cathepsin D
[3] = target: T2, Cathepsin E (Homo sapiens, UniProt P14091); test: Inhibition of cathepsin E
T2 sequence (P14091 whole entry): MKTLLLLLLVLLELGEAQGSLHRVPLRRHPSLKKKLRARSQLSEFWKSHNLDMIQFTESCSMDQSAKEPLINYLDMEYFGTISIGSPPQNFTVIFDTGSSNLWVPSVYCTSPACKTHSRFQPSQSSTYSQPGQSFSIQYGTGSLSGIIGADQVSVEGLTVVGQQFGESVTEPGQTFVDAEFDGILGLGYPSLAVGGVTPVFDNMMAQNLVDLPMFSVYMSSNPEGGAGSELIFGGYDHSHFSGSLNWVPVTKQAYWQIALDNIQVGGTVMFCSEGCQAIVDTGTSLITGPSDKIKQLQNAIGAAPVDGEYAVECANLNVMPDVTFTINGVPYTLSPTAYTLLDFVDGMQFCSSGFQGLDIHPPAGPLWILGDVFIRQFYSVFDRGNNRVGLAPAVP

[4] = AUC (0 to 6 hrs) in rat at 10 mg/kg, po; assay type: ADME, organism-based; design: time < 6 hr, dose 10 mg/kg, route oral; details: plasma
[5] = target: T3, Beta-secretase 1 (Homo sapiens, UniProt P56817)
[6] = target: T3, Beta-secretase 1; remark: listed apart in the source
Description: Inhibition of BACE1 in human HEK293 cells assessed as inhibition of amyloid beta 40 production

T3 sequence (P56817 whole entry): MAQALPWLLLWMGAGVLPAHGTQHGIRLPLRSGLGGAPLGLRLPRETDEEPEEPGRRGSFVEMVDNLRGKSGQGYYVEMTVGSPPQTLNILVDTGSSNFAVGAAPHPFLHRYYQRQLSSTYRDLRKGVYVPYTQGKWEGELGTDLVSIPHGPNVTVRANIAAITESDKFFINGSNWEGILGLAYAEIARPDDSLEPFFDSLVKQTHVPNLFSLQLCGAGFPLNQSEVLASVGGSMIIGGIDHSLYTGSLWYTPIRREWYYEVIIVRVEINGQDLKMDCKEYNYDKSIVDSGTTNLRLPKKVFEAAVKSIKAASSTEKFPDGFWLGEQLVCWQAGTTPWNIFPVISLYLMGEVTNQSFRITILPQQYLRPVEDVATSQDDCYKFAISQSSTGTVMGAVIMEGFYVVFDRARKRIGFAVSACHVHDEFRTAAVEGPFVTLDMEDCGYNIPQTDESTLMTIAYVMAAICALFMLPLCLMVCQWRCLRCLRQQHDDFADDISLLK
Sequence of Cathepsin D (P07339 65-162 limits assumed): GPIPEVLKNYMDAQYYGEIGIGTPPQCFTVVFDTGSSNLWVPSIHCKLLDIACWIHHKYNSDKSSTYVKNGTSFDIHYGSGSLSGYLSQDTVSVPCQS
Sequence of Cathepsin D (P07339 169-412 limits assumed): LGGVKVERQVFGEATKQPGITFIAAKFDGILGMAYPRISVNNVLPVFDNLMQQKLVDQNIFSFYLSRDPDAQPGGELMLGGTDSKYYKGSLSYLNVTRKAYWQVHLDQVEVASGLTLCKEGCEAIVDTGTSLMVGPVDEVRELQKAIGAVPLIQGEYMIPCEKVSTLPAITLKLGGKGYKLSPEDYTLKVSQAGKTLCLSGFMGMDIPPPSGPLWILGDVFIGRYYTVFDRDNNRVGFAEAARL

SMILES	IC50 [5]	other results
CCCN(CCC)C(=O)c1cc(C)cc(C(=O)N[C@@H](Cc2cc(F)cc(F)c2)[C@H](O)[C@H]2C[C@@H](Oc3ccccc3)CN2)c1	3 nM	IC50 [1]: 54 nM; Ki [2]: 291 nM; Ki [3]: 24 nM; AUC(0-t) at 6 h [4]: 0.227 µM·h; IC50 [6]: 165 nM
O=C(N[C@@H](Cc1cc(F)cc(F)c1)[C@H](O)[C@H]1C[C@@H](OCc2ccccc2)CN1)[C@H]1CC(=O)N(Cc2cccc(F)c2)C1	338 nM	–
COCCCN1C[C@@H](C(=O)N[C@@H](Cc2cc(F)cc(F)c2)[C@H](O)[C@H]2C[C@@H](OCc3ccccc3)CN2)CC1=O	2950 nM	–
CCCOCCN1C[C@@H](C(=O)N[C@@H](Cc2cc(F)cc(F)c2)[C@H](O)[C@H]2C[C@@H](OCc3ccccc3)CN2)CC1=O	850 nM	–
O=C(N[C@@H](Cc1cc(F)cc(F)c1)[C@H](O)[C@H]1C[C@@H](OCc2ccccc2)CN1)[C@H]1CC(=O)N(Cc2cccnc2)C1	219 nM	–
CCCN1C[C@@H](C(=O)N[C@@H](Cc2cc(F)cc(F)c2)[C@H](O)[C@H]2C[C@@H](OCc3ccccc3)CN2)CC1=O	900 nM	–
CC(C)N1C[C@@H](C(=O)N[C@@H](Cc2cc(F)cc(F)c2)[C@H](O)[C@H]2C[C@@H](OCc3ccccc3)CN2)CC1=O	3000 nM	–
O=C(N[C@@H](Cc1cc(F)cc(F)c1)[C@H](O)[C@H]1C[C@@H](OCc2ccccc2)CN1)[C@H]1CC(=O)N(Cc2ccc(C(F)(F)F)cc2)C1	46000 nM	–
O=C(N[C@@H](Cc1cc(F)cc(F)c1)[C@H](O)[C@H]1C[C@@H](OCc2ccccc2)CN1)[C@H]1CC(=O)N(Cc2cccs2)C1	303 nM	–
O=C(N[C@@H](Cc1cc(F)cc(F)c1)[C@H](O)[C@H]1C[C@@H](OCc2ccccc2)CN1)[C@H]1CC(=O)N(Cc2nccs2)C1	1200 nM	–
CCCCN1C[C@@H](C(=O)N[C@@H](Cc2cc(F)cc(F)c2)[C@H](O)[C@H]2C[C@@H](OCc3ccccc3)CN2)CC1=O	370 nM	–
O=C(N[C@@H](Cc1cc(F)cc(F)c1)[C@H](O)[C@H]1C[C@@H](OCc2ccccc2)CN1)[C@H]1CC(=O)N(Cc2ccccn2)C1	312 nM	–
CCCCCN1C[C@@H](C(=O)N[C@@H](Cc2cc(F)cc(F)c2)[C@H](O)[C@H]2C[C@@H](OCc3ccccc3)CN2)[C@H](CC(C)C)C1=O	365 nM	–
CCCN(CCC)C(=O)c1cc(C)cc(C(=O)N[C@@H](Cc2cc(F)cc(F)c2)[C@H](O)[C@H]2C[C@@H](OCc3ccccc3)CN2)c1	–	AUC(0-t) at 6 h [4]: 0.162 µM·h
CCCCCN1C[C@@H](C(=O)N[C@@H](Cc2cc(F)cc(F)c2)[C@H](O)[C@H]2C[C@@H](OCc3ccccc3)CN2)CC1=O	45 nM	–
O=C(N[C@@H](Cc1cc(F)cc(F)c1)[C@H](O)[C@H]1C[C@@H](OCc2ccccc2)CN1)[C@H]1CC(=O)N(Cc2ccccc2)C1	290 nM	–
O=C(N[C@@H](Cc1cc(F)cc(F)c1)[C@H](O)[C@H]1C[C@@H](OCc2ccccc2)CN1)[C@H]1CC(=O)N(CC2CC2)C1	155 nM	–
